Data as given in patent US20160146815A1, “METHOD FOR SCREEING CANCER METASTASIS INHIBITOR USING CULTURE OF CELLS OR SPHEROIDICALLY AGGREGATED CELLS IN WHICH LYSYL-TRNA SYNTHETASE IS REGULATED TO BE EXPRESSED OR UNEXPRESSED” (Medicinal Bioconvergence Research Center, priority 2013, published 2016).
“Also recorded” adds a separate entry of the source.

Key:
HCT116 spheroid cells = experiment: Immunostaining of p-ERKs and paxillin in spheroids in three-dimensional collagen gel (confocal microscope); assay type: cell-based, human; conditions: U0126 (50 mM) or YH16899 (50 mM), a day
Procedure: Particularly, collagen type I was distributed in PDMS, which was treated with nothing for a day (FIG. 6A and FIG. 6B) or treated with U0126 (50 mM) or YH16899 (50 mM) (FIG. 6C and FIG. 6D). Collagen gel containing the cultured cells was fixed in 4% formaldehyde for 30 minutes, followed by the treatment with 30 mM glycine for 30 minutes. Permeabilization was induced by using 0.5% triton X-100 for 30 minutes, followed by blocking with 3% BSA solution for 2 hours. The unlabeled p-ERKs (cell signaling) and paxillin (BD bioscience) antibodies were treated thereto at 4° C. at least 16˜18 hours, followed by the treatment with the secondary antibody for at least 4 hours at room temperature. At last, DAPI (4′,6-diamidino-2-phenylindole) solution was treated thereto in order to stain nuclei. The stained cells were observed under confocal microscope.

[1] = system: HCT116 spheroidically aggregated cells; experiment: Dissemination of cells from spheroidically aggregated cells in three-dimensional collagen gel (time-lapse microscope); assay type: cell-based, human; conditions: HCT116 parental cells, U0126 50 μM, three-dimensional collagen gel, real-time live imaging
Procedure: Particularly, 2.5 mg/Ml of collagen containing cells was loaded in the magnetic 4-well chamber (Live Cell Instrument, Korea) for the culture system of time-lapse microscope, and the collagen was hardened in a 37° C. incubator for 30 minutes. When the collagen was fully solidified, PRMI-1640 supplemented with 10% FBS was added thereto. The magnetic chamber containing three-dimensional collagen gel and its corresponding adaptor were placed on the time-lapse microscope, followed by setting the multi-position. […] 5% CO2 incubator. Culture medium was added thereto every 6 hours in order for the collagen not to be dried. At this time, it is important to maintain the focus not to be changed. […]
As confirmed in the result of Example 14, when the HCT116 parental cells were treated with TGFβ1, the dissemination of cells from the spheroidically aggregated cells and migration thereof were observed. When the KRS knock-out cell line was treated with TGFβ1, the dissemination of cells was not observed. […] When the extracellular signal-regulated kinase (ERKs) inhibitor U0126 was treated to the HCT116 parental cells, it was presumed to be negative effect on the dissemination and migration of cells. To verify above, 50 μM of U0126, the ERKs inhibitor, was treated to the cell line, followed by observation of cell dissemination and migration by real-time live imaging of the spheroidically aggregated cells.

HCT116 parental cells [2] = conditions: U0126 50 or 100 μM, 24 hours; vs control not treated
Procedure: Particularly, the HCT116 parental cells cultured in a three-dimensional collagen gel environment were either not treated with U0126 or treated with U0126, the ERKs inhibitor, at the concentration of 50 or 100 μM, followed by culture for 24 hours.

HCT116 parental cells [3] = experiment: Western blotting of signaling factors in spheroidically aggregated cells in three-dimensional collagen gel; assay type: cell-based, human; conditions: for phosphorylation of FAK / expression of E-cadherin / expression of paxillin / expression of β-catenin / phosphorylation of ERKs / phosphorylation of paxillin: 50 and 100 μM, three-dimensional collagen gel, Western blotting; for phosphorylation of FAK: a day (24 hours); for expression of E-cadherin / expression of paxillin / expression of β-catenin / phosphorylation of ERKs / phosphorylation of paxillin: a day
Procedure: Whole cell extract was collected, followed by Western blotting by the same manner as described in Example <7-2>. At this time, the primary antibodies of pY397FAK, FAK, p-ERKs, ERKs, pY118paxillin, paxillin, E-cadherin, β-catenin, KRS, α-tubulin, pAkt1/2/3, and caspase 3 were used.
SDS, Na3O4V, and protease inhibitor cocktails (GenDepot) were added to lysis buffer, followed by reaction at 4° C. for at least 1 hour. Centrifugation was performed at 4° C., at 13000 rpm, for 30 minutes. The supernatant was transferred into a new microcentrifuge tube. 4×SDS-PAGE sample buffer was added thereto, followed by boiling at 100° C. for 5 minutes. The extract was quantified by Western blotting using α-tubulin antibody (Sigma). Other protein expressions and phosphorylations were also measured by Western blotting.

HCT116 cells = experiment: CK14 immunostaining of spheroids in three-dimensional collagen gel; assay type: cell-based, human; conditions: U0126 (50 mM) or YH16899 (50 mM), a day, KRS expressing cells
Excerpt: In a three-dimensional collagen gel environment, the dissemination of cells was KRS expression-dependent, and the expressions of epithelial markers involved in cell-cell contact were reduced in the KRS knock-out cell lines. However in the KRS knock-out cell lines, the cell scattering was not observed in a two-dimensional culture environment and the dissemination was not observed in a three-dimensional collagen gel environment. So, in order to confirm whether or not the dissemination of cells from the spheroidically aggregated cells of KRS knock-out cell line in a three-dimensional collagen gel environment was attributed to the expression of epithelial marker, the cell line was cultured in a three-dimensional collagen gel environment for 24 hours. When the dissemination was observed, CK14 staining was performed and the cells were observed under confocal microscope.
Particularly, the collagen gel containing cells were distributed in PDMS, which was treated with nothing for a day (FIG. 9A) or treated with U0126 (50 mM) or YH16899 (50 mM) (FIG. 9B). The collagen gel containing the cultured cells was fixed in 4% paraformaldehyde for 30 minutes, which was then treated with 30 mM glycine for 30 minutes. Then, permeabilization was induced by using 0.5% triton X-100 for 30 minutes, followed by blocking with 3% BSA solution for 2 hours. […]

[4] = system: colorectal cancer cell line SW620; experiment: Dissemination of cells from SW620 spheroids in three-dimensional collagen gel (time-lapse imaging); assay type: cell-based, human; conditions: SW620 parental cells treated with U0126 or YH16899
Excerpt: Various colorectal cancer cell lines (SW620, HCT15, SNU977, KM12SM, and SNU-05) were stably transfected with shKRS to suppress KRS expression (clones #2 and #5). Then, the dissemination was observed under time-lapse microscope (FIG. 17A) or the signaling activity was investigated after the treatment of YH16899 (FIG. 17B).
Particularly, the colorectal cancer cell lines SW620, HCT15, SNU977, KM12SM, and SNU-05 (Korean Cell Line Bank, Cancer Research Institute, Seoul National University) were distributed in a three-dimensional collagen gel environment as spheroids, followed by time-lapse imaging 6 hours later or followed by normal culture in a two-dimensional environment supplemented with 10% serum for 2 days. Then, lysis buffer (50 mM Tris-HCl, pH7.4, 1% NP-40, 0.25% sodium deoxycholate, 150 mM NaCl, 1 mM EDTA) was added thereto, followed by lysis to obtain cell lysate. The protein in the obtained cell lysate was quantified, followed by Western blotting with the labeled factors.

In the case of `N#CC(=C(/N)Sc1ccccc1N)/C(C#N)=C(\N)Sc1ccccc1N` [U0126], the “ERKs phosphorylation level (p-ERKs immunostaining)” value (HCT116 spheroid cells) is reported as “inhibited significantly; also recorded: very low”, the “paxillin immunostaining level (paxillin expression)” value (HCT116 spheroid cells) is reported as “inhibited significantly; also recorded: significantly reduced” and the “dissemination and migration of cells from the spheroid” value (shortened to “dissemination and migration of cells”) [1] is reported as “suppression”. The “dissemination and migration of cells” value ([1]; listed as ERKs inhibitor) was “did not cause cell migration and dissemination; also recorded: not induced”, the “dissemination and migration of cells” value ([1]; listed as ERKs inhibitors) was “inhibited” and the “dissemination and migration of cells” value ([1]; listed as U1026) was “inhibited”. The “expression level of E-cadherin mRNA” value (HCT116 parental cells [2]) was “significantly reduced”, the “phosphorylation of FAK” value (HCT116 parental cells [3]) was “suppressed” and the “phosphorylation of FAK” value (HCT116 parental cells [3]; listed as ERKs inhibitor) was “significantly reduced”. For the same compound, the “expression of E-cadherin” value (HCT116 parental cells [3]) was “reduced”, the expression of paxillin (HCT116 parental cells [3]) was “reduced” and the “expression of β-catenin” value (HCT116 parental cells [3]) was “reduced”. The “phosphorylation of ERKs” value (HCT116 parental cells [3]) was “suppressed”, the phosphorylation of paxillin (HCT116 parental cells [3]) was “reduced; also recorded: suppressed” and the “expression of E-cadherin” value (HCT116 parental cells [3]; listed as ERKs inhibitor) was “significantly reduced”. The expression of paxillin (HCT116 parental cells [3]; listed as ERKs inhibitor) was “significantly reduced”, the phosphorylation of paxillin (HCT116 parental cells [3]; listed as ERKs inhibitor) was “significantly reduced” and the “expression of E-cadherin” value (HCT116 parental cells [3]; listed as U1026) was “decreased”. The expression of paxillin (HCT116 parental cells [3]; listed as U1026) was “inhibited”, the “expression of β-catenin” value (HCT116 parental cells [3]; listed as U1026) was “decreased” and the “phosphorylation of ERKs” value (HCT116 parental cells [3]; listed as U1026) was “inhibited”. For the same compound, the phosphorylation of paxillin (HCT116 parental cells [3]; listed as U1026) was “inhibited”, the “expression of the epithelial marker” value (HCT116 parental cells [3]; HCT116 cell line in three-dimensional collagen gel, FIG. 18 legend) was “increased” and the CK14 expression (HCT116 cells) was “significantly suppressed”. For the same compound, the CK14 expression (HCT116 cells; listed as U1026) was “low and very low” and the “dissemination of cells from the three-dimensional spheroid cells” value [4] was “not observed”.
